According to US10822431B2, “Fucoidan preparation, zinc-bound fucoidan and use thereof” (South Product Ltd., priority 2015, dated 2020):

Tested on: Hep G2 cells
Assay: Cytotoxicity test using Hep G2 cells (MTT assay)
Format: cell-based
Conditions: up to 500 μg/ml; zinc only as a comparison
Experimental: Cytotoxicity Test Using Hep G2 Cells:
[…] P. (2000). “Cytotoxicity and Viability Assays”. In Masters, J. R. W. Animal Cell Culture: A Practical Approach, 3rd) using Hep G2 cells were conducted on these preparations.

Structure (SMILES): [Zn] [zinc]
- Cytotoxicity of Hep G2 cells: no cytotoxicity of Hep G2 cells was confirmed
